Test systems include HOP-62 NSCLC; NCI-H460 lung; A498 renal; DU-145 prostate; SF-295 CNS; COLO 205 colon; NCI/ADR-RES ovarian; RXF 393 renal; M14 melanoma; CAKI-1 renal; NCI-H23 lung; CCRF-CEM leukemia; HT29 colon; SR leukemia.
What all share (assay): inhibition of tumour cell growth, NCI panel, 48 h

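Compound exposure: 48 hours, 5 concentrations, 96-well plates. The concentration for full growth arrest is given as TGI.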

As for `CC1(Cc2cc3c(cc2C2(c4ccc([N+](=O)[O-])cc4)OCCO2)OCO3)OCCO1`, the TGI in the experiment with HOP-62 NSCLC, with NCI-H460 lung, in the experiment with A498 renal, in the experiment on DU-145 prostate, in the experiment with SF-295 CNS and with COLO 205 colon was > 100 µM throughout. For the same molecule, the TGI in the experiment with NCI/ADR-RES ovarian, in the experiment on RXF 393 renal, with M14 melanoma, in the experiment with CAKI-1 renal, in the experiment with NCI-H23 lung and with CCRF-CEM leukemia was > 100 µM throughout. Besides, the TGI in the experiment with HT29 colon is > 100 µM.

As for `COc1cccc(N2C(=O)C3c4[nH]c5ccc(C)cc5c4C4CCC(C)CC4C3C2=O)c1` (stereo not drawn), the TGI in the experiment with HOP-62 NSCLC is 42.6 µM; with NCI-H460 lung it was > 100 µM; with A498 renal, > 100 µM; in the experiment on DU-145 prostate it was > 100 µM; with SF-295 CNS it was > 100 µM; in the experiment on COLO 205 colon, > 100 µM. In addition, the TGI in the experiment with NCI/ADR-RES ovarian was > 100 µM; in the experiment with RXF 393 renal, 47.3 µM; in the experiment on M14 melanoma it was > 100 µM; in the experiment with CAKI-1 renal, > 100 µM; in the experiment on NCI-H23 lung it was > 100 µM; with CCRF-CEM leukemia it was > 100 µM. Besides, the TGI in the experiment on HT29 colon was > 100 µM.

Consider `CC(C)(C)OC(=O)NC(Cc1ccc(OCc2ccccc2)cn1)C(=O)O` (stereo not drawn), for which the TGI in the experiment with HOP-62 NSCLC, with NCI-H460 lung, in the experiment with A498 renal, in the experiment with DU-145 prostate, in the experiment with SF-295 CNS and with COLO 205 colon was > 100 µM in each case. Moreover, the TGI in the experiment on NCI/ADR-RES ovarian, in the experiment with SR leukemia, in the experiment on RXF 393 renal, in the experiment with CAKI-1 renal, with NCI-H23 lung and in the experiment on HT29 colon was > 100 µM in each case.

With `Cn1nc(S(N)(=O)=O)s/c1=N/S(=O)(=O)c1ccc(N)cc1`, the TGI in the experiment with HOP-62 NSCLC, with NCI-H460 lung, with A498 renal, with DU-145 prostate, in the experiment on SF-295 CNS and in the experiment with COLO 205 colon was > 100 µM throughout. Further, the TGI with NCI/ADR-RES ovarian, with RXF 393 renal, with M14 melanoma, in the experiment with CAKI-1 renal, in the experiment on NCI-H23 lung and in the experiment with HT29 colon was > 100 µM in each case.

As for `O=C(CSc1nc2ccc(I)cc2c(=O)n1Cc1ccccc1)NN1C(=O)CSC1c1ccccc1` (stereo not drawn), the TGI with HOP-62 NSCLC came to 48.5 µM; in the experiment with NCI-H460 lung it was 36.3 µM; with DU-145 prostate it was 78.1 µM; in the experiment with SF-295 CNS it was 76 µM; in the experiment with COLO 205 colon, 34.6 µM; in the experiment with NCI/ADR-RES ovarian, 57.2 µM. Further, the TGI with SR leukemia is > 100 µM; in the experiment on RXF 393 renal it was 57.4 µM; in the experiment on M14 melanoma it was 84.4 µM; in the experiment with CAKI-1 renal, 10.9 µM; with NCI-H23 lung, 43.2 µM; with CCRF-CEM leukemia, > 100 µM. In the experiment on HT29 colon, the TGI was > 100 µM.

As to `COC(=O)C1Cc2c([nH]c3ccccc23)-c2[nH]c3ccccc3c2CC(NC(C)=O)C(=O)NCC(=O)NCC(=O)N1` (stereo not drawn), the TGI with HOP-62 NSCLC, in the experiment with NCI-H460 lung, in the experiment with A498 renal, in the experiment on DU-145 prostate, with SF-295 CNS and in the experiment with COLO 205 colon was > 100 µM in each case. For the same molecule, the TGI with NCI/ADR-RES ovarian, in the experiment on RXF 393 renal, in the experiment with M14 melanoma, with CAKI-1 renal, in the experiment with NCI-H23 lung and with CCRF-CEM leukemia was > 100 µM each time. Besides, the TGI in the experiment on HT29 colon was > 100 µM.

On to `CCOC(=O)C(C)c1nc2cc(C(F)(F)F)ccc2[nH]c1=O` (stereo not drawn), for which the TGI with HOP-62 NSCLC, in the experiment with NCI-H460 lung, with A498 renal, in the experiment with DU-145 prostate, with SF-295 CNS and in the experiment with COLO 205 colon was > 100 µM in each case. The TGI in the experiment on NCI/ADR-RES ovarian, with RXF 393 renal, in the experiment on M14 melanoma, with CAKI-1 renal, with NCI-H23 lung and in the experiment on CCRF-CEM leukemia was > 100 µM each time. The TGI with HT29 colon is > 100 µM.

With `CN1C(=O)C(C#N)C2C[C@@]1(C)Oc1ccccc12` (stereo partly drawn), the TGI in the experiment on HOP-62 NSCLC, with NCI-H460 lung, with A498 renal, in the experiment on DU-145 prostate, in the experiment on SF-295 CNS and in the experiment with COLO 205 colon was > 100 µM throughout. Further, the TGI with NCI/ADR-RES ovarian, in the experiment with RXF 393 renal, in the experiment on M14 melanoma, in the experiment on CAKI-1 renal, with NCI-H23 lung and in the experiment with CCRF-CEM leukemia was > 100 µM in each case. Also, the TGI in the experiment with HT29 colon was > 100 µM.

As to `CC1(C)N([O-])[N+](=O)C1(Br)c1ccccc1` (stereo not drawn), the TGI in the experiment with HOP-62 NSCLC, in the experiment with NCI-H460 lung, in the experiment on DU-145 prostate, with SF-295 CNS, in the experiment with COLO 205 colon and in the experiment with NCI/ADR-RES ovarian was > 100 µM each time. For the same molecule, the TGI in the experiment on SR leukemia, in the experiment with RXF 393 renal, in the experiment with M14 melanoma, in the experiment on CAKI-1 renal, with NCI-H23 lung and in the experiment with CCRF-CEM leukemia was > 100 µM each time. Further, in the experiment on HT29 colon, the TGI is > 100 µM.

For `N#Cc1nc(-c2ccc(-c3nc(C#N)c(N)o3)cc2)oc1N`, the TGI in the experiment with HOP-62 NSCLC, in the experiment on NCI-H460 lung, in the experiment on DU-145 prostate, in the experiment with SF-295 CNS, in the experiment on COLO 205 colon and in the experiment on NCI/ADR-RES ovarian was > 10 µM throughout. Besides, the TGI in the experiment with SR leukemia, in the experiment with RXF 393 renal, in the experiment with M14 melanoma, with CAKI-1 renal, in the experiment on NCI-H23 lung and with CCRF-CEM leukemia was > 10 µM each time. The TGI in the experiment on HT29 colon was > 10 µM.

As to `O=C(/C=C/c1ccccc1Br)c1ccccc1`, the TGI in the experiment on HOP-62 NSCLC was found to be 26.2 µM; with NCI-H460 lung, 16.3 µM; with A498 renal, 11.1 µM; with DU-145 prostate it was 20.1 µM; with SF-295 CNS, 23.4 µM; with COLO 205 colon, 28.6 µM. Besides, the TGI is 17.7 µM in the experiment on NCI/ADR-RES ovarian; 20.1 µM in the experiment on RXF 393 renal; 15.1 µM with M14 melanoma; 8.37 µM with CAKI-1 renal; 12.6 µM in the experiment with NCI-H23 lung; 3.85 µM with CCRF-CEM leukemia. Moreover, in the experiment with HT29 colon, the TGI came out at 9.42 µM.

With `O=C1OC(C2Cc3ccc4c(c3C2=O)CCCC4)c2ccccc21` (stereo not drawn), the TGI in the experiment on HOP-62 NSCLC is > 100 µM; in the experiment with NCI-H460 lung, > 100 µM; in the experiment with A498 renal, 53.6 µM; in the experiment on DU-145 prostate, > 100 µM; in the experiment on SF-295 CNS, > 100 µM; in the experiment with COLO 205 colon, > 100 µM. For the same molecule, the TGI with NCI/ADR-RES ovarian, in the experiment with M14 melanoma, in the experiment on CAKI-1 renal, in the experiment with NCI-H23 lung, with CCRF-CEM leukemia and with HT29 colon was > 100 µM in each case.

On to `CC(C)(C)CN1[C@@H]2CCCC[C@H]2N(CC(C)(C)C)P1(=O)C(O)/C=C/c1ccccc1` (stereo partly drawn), for which the TGI in the experiment on HOP-62 NSCLC was > 100 µM; in the experiment on NCI-H460 lung it was 85.3 µM; with A498 renal, 89.8 µM; in the experiment on DU-145 prostate, > 100 µM; in the experiment with SF-295 CNS, > 100 µM; in the experiment on COLO 205 colon it was 34.2 µM. Besides, the TGI in the experiment on NCI/ADR-RES ovarian, with RXF 393 renal, in the experiment with M14 melanoma, in the experiment with CAKI-1 renal, in the experiment on NCI-H23 lung and in the experiment with CCRF-CEM leukemia was > 100 µM each time. Also, in the experiment with HT29 colon, the TGI is > 100 µM.

Take `CCOC(=O)CNC(=O)CNC(=O)CNC(=O)CNNc1c(OCc2ccccc2)c(=O)c1=O`: the TGI in the experiment with HOP-62 NSCLC, with A498 renal, in the experiment on DU-145 prostate, with COLO 205 colon, in the experiment with NCI/ADR-RES ovarian and in the experiment on RXF 393 renal was > 100 µM each time. The TGI with M14 melanoma, in the experiment with CAKI-1 renal, in the experiment with NCI-H23 lung, in the experiment on CCRF-CEM leukemia and with HT29 colon was > 100 µM each time.

In the case of `CCC1(CC)C(=O)NN(C(=O)c2ccc(Cl)cc2)C1=O`, the TGI in the experiment with HOP-62 NSCLC, with NCI-H460 lung, with DU-145 prostate, in the experiment with SF-295 CNS, in the experiment with COLO 205 colon and in the experiment on NCI/ADR-RES ovarian was > 100 µM each time. In addition, the TGI with SR leukemia, in the experiment with RXF 393 renal, in the experiment with M14 melanoma, in the experiment with CAKI-1 renal, with NCI-H23 lung and in the experiment with CCRF-CEM leukemia was > 100 µM in each case. Besides, the TGI with HT29 colon was > 100 µM.

Consider `CCOC(=O)CON=c1c2ccccc2ccc2ccccc12`, for which the TGI in the experiment with HOP-62 NSCLC, in the experiment on NCI-H460 lung, in the experiment with DU-145 prostate, in the experiment with SF-295 CNS, in the experiment on COLO 205 colon and in the experiment with NCI/ADR-RES ovarian was > 100 µM in each case. Also, the TGI in the experiment on SR leukemia, in the experiment on RXF 393 renal, in the experiment on M14 melanoma, in the experiment with CAKI-1 renal, in the experiment on NCI-H23 lung and with CCRF-CEM leukemia was > 100 µM each time. The TGI in the experiment with HT29 colon was > 100 µM.

(Values after PubChem BioAssay (NCI).)
